The source of these data is patent publication US5849322A, “Compositions and methods for buccal delivery of pharmaceutical agents” (Theratech, Inc., priority 1995, dated 1998).

Where “and” joins values, the source holds several entries; their conditions need not be identical. Identical values can stand only once. Like-named read-outs stand apart in the source and are kept apart here.

For data set [1] the following is noted: bile salts; cited from earlier work.
Data set [2] can be described thus: Subcutaneous GLP-1 in fasting subjects (study by M. A. Nauck, FIG. 6), regression analysis. The format is in vivo, human (fasting subjects). The text has this:
This could be due to changes in bioavailability with dose, changes in clearance with dose, or a combination of both effects.

For data set [3] the following is noted: intravenous infusion, fasting individuals; cited from earlier work.
Data set [4] in a line: Buccal bilayer tablet, double-blind placebo-controlled crossover: blood glucose, plasma insulin and glucagon. The format is in vivo, human (healthy volunteers). The text has this:
(§1) This example describes a double-blind, placebo-controlled, crossover comparison with random assignment to treatment sequence. […] Inclusion criteria for the volunteers were normal glucose tolerance, weight within 22<BMI<26, informed consent to participate in the study, and age between 20 and 60 years. Exclusion criteria were impaired glucose tolerance (2-hour glucose tolerance test; OGTT), gastrointestinal symptoms, ongoing medication or illness, acute infection, abnormal laboratory variables (hemoglobin, hematocrit, leucocytes, creatinine, bilirubin, calcium, potassium, sodium, alkaline phosphatase, gamma-GT, SGOT, SGPT, cholesterol, and triglycerides), and blood pressure greater than 185 mmHg systolic and/or 90 mmHg diastolic.
Subject numbers were allotted to the subjects in the order in which they were enrolled in the study. The number allotted to each subject determined the treatment sequence received. Subjects receiving treatment sequence 1 were treated with drug followed by placebo, and subjects receiving treatment sequence 2 were treated with placebo followed by drug.
(§2) Subjects were instructed to fast the night before a treatment. At the clinic, the subjects were given either a drug-containing bilayer tablet or placebo. At time 0 the bilayer tablet was applied to the gingiva with the active layer in contact with the tissue of the lip or inside of the cheek, and the subjects were placed in a rest position. The bilayer tablet was removed after 4.5 hours. No meals were allowed until a standard meal was given after 4.5 hours, and snacks were not permitted at any time. The standard meal contained 550 kcal, with 28%, 22%, and 50% of the energy from protein, fat, and carbohydrate, respectively. The test continued until 8 hours after application of the bilayer tablet, and the subjects left the hospital after 9 hours. The subjects were given their medications in the clinic by a nurse and were under observation at all times. Any symptoms or sensations disturbing or impairing the subjects' wellbeing during the experiments was carefully documented. Standard safety variables were determined under fasting conditions before each experiment. Blood glucose was monitored frequently and glucose infusion was available in case of hypoglycemia (<2.5 mmol/L). If any subject were to experience hypoglycemic symptoms, an extra blood glucose determination would be taken for safety reasons A washout period of 1-4 days was allowed between each experiment The study was completed within 6 weeks after enrollment of the first volunteer.
(§3) The peptide content of bilayer tablet samples was also analyzed by HPLC. […] Results were tested for normal distribution. A two-tailed t-test was carried out for normally distributed samples, and a Wilcoxon rank-sum test was used for data that were not normally distributed. All statistical tests used a level of significance of 0.05.

A short description of data set [5]: Plasma GLP-1(7-36)amide pharmacokinetics after buccal bilayer tablet. The format is in vivo, human (healthy volunteers).
Source text: as §1, §2, §3
This was done in comparison to published data.
The data summarized in FIG. 5 were analyzed by AUC to provide an estimate of relative bioavailability by buccal administration as compared to subcutaneous administration.

The conditions of data set [6]: in vivo; cited from earlier work.
Data set [7] in a line: Buccal delivery of salmon calcitonin in dogs. The format is in vivo, dog (mongrel dogs). Also on record: AUC infinity, buccal / AUC infinity, iv: concentration or dose not given beside the values. The protocol: (§4) Bilayer tablets prepared according to Examples 13-15 were tested in in vivo experiments to determine their effectiveness in delivering peptide X systemically to dogs. Mongrel dogs each weighing 30-35 kg were conditioned for one month prior to use. The dogs were mildly sedated with acepromazine, but were awake for the duration of each experiment. Tablets were attached to the gingiva with the active layer contacting and in drug transfer relationship to the buccal mucosa of the upper lip. Nylon muzzles were used to prevent the animals from licking the tablets. In this model, normal salivary functions were preserved and no irrigation was required. The saphenous vein was catheterized to permit venous blood sampling. Blood samples were collected into citrate "[…]" tubes and immediately chilled on ice for 15 minutes and then centrifuged for 10 minutes at 3400 rpm. The resultant supernatant plasma was then collected and stored in capped polypropylene tubes at -70° C. until analyzed for peptide X content.
The procedure of Example 16 was followed with the exception that salmon calcitonin was substituted for peptide X, and tablet sizes and numbers were varied in some experiments.

For data set [8] the following is noted: colon of a baboon, cited from earlier work.
A short description of data set [9]: Buccal delivery of insulin in dogs: blood glucose. The format is in vivo, dog (mongrel dogs). The conditions noted are these: 5 U/kg. How it is done:
as §4
The procedure of Example 16 was followed with insulin-containing tablets prepared according to Example 6. The results shown in FIG. 8 are the average of 4 dogs, each given one 0.375 inch diameter buccal tablet containing 5 U/kg of drug. […] Beginning about 60 minutes after application, the blood glucose levels start to rise again, reaching normal levels about 120 minutes after application.

The mark [10] stands for this setting: buccal bilayer tablet, 400 μg, FIG. 3.
Where [11] appears, read: buccal bilayer tablet, 400 μg, FIG. 4.
Setting [12] is: buccal bilayer tablet, 400 μg, fasting, FIG. 2.
Setting [13] is: buccal bilayer tablet, 400 μg, FIG. 5.
Setting [14] is: individual subjects 901-908 and mean, buccal, dose 119 nmol.
Setting [15] is: average of 4 dogs, one 0.375 inch buccal tablet, FIG. 8.

For the molecule `C[C@H](CCC(=O)O)[C@H]1CC[C@H]2[C@@H]3[C@H](O)C[C@@H]4C[C@H](O)CC[C@]4(C)[C@H]3CC[C@]12C` [chenodeoxycholate], the “Order of effectiveness in enhancing nasal absorption of insulin” value (“Order of effectiveness” below) in [1] is “deoxycholate≤chenodeoxycholate≤cholate≤ursodeoxychola te”.
Consider `C[C@H](CCC(=O)O)[C@H]1CC[C@H]2[C@@H]3[C@H](O)C[C@@H]4C[C@H](O)CC[C@]4(C)[C@H]3C[C@H](O)[C@]12C` [cholate], for which the “Order of effectiveness” value in [1] was “deoxycholate≤chenodeoxycholate≤cholate≤ursodeoxychola te”.
`C[C@H](CCC(=O)O)[C@H]1CC[C@H]2[C@@H]3[C@@H](O)C[C@@H]4C[C@H](O)CC[C@]4(C)[C@H]3CC[C@]12C` [ursodeoxychola te]: the “Order of effectiveness” value in [1] is reported as “deoxycholate≤chenodeoxycholate≤cholate≤ursodeoxychola te”.
As for GLP-1, the “Bioavailability by subcutaneous administration relative to intravenous administration” value in data set [2] (fasting subjects) was determined as 38%. The Clearance entry in [2] (subcutaneous, regression analysis of all the results) was “about 40 ml/min/kg”; in data set [3] it was about 15 mL/min/kg.
For the molecule “GLP-1(7-36)amide: gastrointestinal hormone processed from the preproglucagon gene; the naturally occurring form in humans”, in data set [4] (about 30 minutes, buccal bilayer tablet, 400 μg, FIG. 4), the “Plasma glucagon level at its low compared to placebo” value is reported as “significantly lower than the placebo group”. For the same molecule, the “Plasma glucagon level at its peak compared to placebo” value in data set [4] (after the low, buccal bilayer tablet, 400 μg, FIG. 4) is reported as “significantly higher than the placebo group”. Also, in [4] (setting [10]), the “Start of rise of plasma insulin level” value turned out to be 10 min, the “Time of decline of plasma insulin to normal” value was “about 50 minutes” and the “Time of peak plasma insulin level” value is given as “about 20 minutes”. Besides, in data set [4] (setting [11]), the “Time from which plasma glucagon tracks the placebo group” value was “about 150 minutes”, the “Time of low of plasma glucagon level” value is “about 30 minutes” and the “Time of peak of plasma glucagon level” value lay in the range of 60 to 75 min. In addition, the “Blood glucose levels compared to placebo controls” value in data set [4] (buccal bilayer tablet, 400 μg, fasting) is listed as “significantly reduced blood glucose levels as compared to placebo controls”. Moreover, in data set [4] (setting [12]), the “Lowest blood glucose level” value was “about 3 mmol/L”, the “Time by which blood glucose drops below that of the placebo group” value was at most 20 min, the “Time of lowest blood glucose level” value was “about 50 minutes” and the “Time of return of blood glucose to a normal level” value is listed as “about 90 minutes”. The “Blood glucose levels of the two groups after the meal” value in data set [4] (drug vs placebo, after standard meal at 4.5 hours) is “indistinguishable after the meal”. The “Plasma insulin level at 15 minutes after administration” value in data set [4] (relative to normal, buccal bilayer tablet, 400 μg, FIG. 3) is reported as “about three time normal”. Besides, the “Plasma GLP-1(7-36)amide level after the meal compared to placebo” value in data set [5] (after standard meal at 4.5 hours) is “approximately the same as that of the placebo group”. The “Absorption through the buccal mucosa into the bloodstream” value in [5] (buccal bilayer tablet, 400 μg) is given as “rapid absorption through the buccal mucosa into the bloodstream”. Also, in [5] (setting [13]), the “Start of rise of plasma GLP-1(7-36)amide level” value was at most 5 min, the “Time from which plasma GLP-1(7-36)amide tracks the placebo group” value is listed as “about 150 minutes”, the “Time of peak plasma GLP-1(7-36)amide level” value is reported as “about 30 minutes” and the “Time until which plasma GLP-1(7-36)amide declines rapidly” value is given as “about 90 minutes”. Besides, in data set [5] (setting [14]), the AUC (usually the area under the concentration-time curve, a measure of exposure) was 11343 pmol·min/L and 3278 pmol·min/L and 8024 pmol·min/L and 9113 pmol·min/L and 7250 pmol·min/L and 8753 pmol·min/L and 8410 pmol·min/L; the Bioavailability is 10.01% and 2.89% and 7.08% and 6.40% and 7.72% and 7.42%; the “Dose (second Dose column)” value was 11.91 nmol and 3.44 nmol and 9.57 nmol and 7.61 nmol and 9.19 nmol and 8.83 nmol. In addition, the “Effect on glucose-induced insulin release” value in [6] was “potentiates glucose-induced insulin release”.
Turning to Salmon Calcitonin, the “Buccal delivery into the bloodstream” value in data set [7] (bilayer tablet) was “delivered into the bloodstream of a warm-blooded animal by buccal delivery”. Besides, in data set [7] (individual dogs (Dog ID#), 2 buccal tablets, 1.27 or 0.71 cm^2), the “ng Absorbed” value was 72,958 ng and 16,461 ng and 20,989 ng and 6,535 ng and 23,379 ng and 17,614 ng. Moreover, in data set [7] (individual dogs (Dog ID#), 2 tablets, first figure of "buc/iv"), the “AUC infinity, buccal” value was 139 and 66 and 84 and 26 and 64 and 38. Moreover, the “AUC infinity, iv” value in [7] (individual dogs (Dog ID#), second figure of "buc/iv") is 76 and 159 and 106 and 87.
Turning to heparin, the “Activity with bile salts in the formulation” value in data set [8] (with sodium cholate or deoxycholate) is “significant activity is detected”. For the same molecule, the “Transmucosal intestinal delivery (partial thromboplastin time prolongation or plasma lipase release)” value in data set [8] (without bile salt) is listed as “not apparent”.
Take “insulin: insulin-containing tablets prepared according to Example 6 (human insulin)”: in [9] (setting [15]), the “Start of rise of blood glucose” value is listed as “about 60 minutes”, the “Start of sharp drop of blood glucose” value is listed as “about 15 minutes”, the “Time of low level of blood glucose” value is given as “about 40 minutes” and the “Time of return of blood glucose to normal levels” value was “about 120 minutes”. Moreover, the “Control of blood glucose levels” value in data set [9] (buccal delivery) was “effective in controlling blood glucose levels”.
